Each block holds one compound with its values, some of them ahead of it.
Columns and labels:
whole milk folate binder = whole milk folate binder (Bos taurus, UniProt P02702); assay: competitive protein binding (CPB) radioassay for folates using pteroyltyrosine [125I] as radiolabel; settings: for dose response curves generated using pteroyltyrosine [125I] as label, folic acid versus N5-methyl THF: at high pH compared with lower pH; for behaviour in the folate competitive protein binding assay of radiolabel made from directly coupled p-aminobenzoyltyrosine product, compared with label from the hydrolyzed ester: pteroyltyrosine from 6-formylpterin + H-PABA-L-Tyr-OH (Example 1f(2)), radioiodinated, gel chromatography
Chain of whole milk folate binder (P02702 20-234): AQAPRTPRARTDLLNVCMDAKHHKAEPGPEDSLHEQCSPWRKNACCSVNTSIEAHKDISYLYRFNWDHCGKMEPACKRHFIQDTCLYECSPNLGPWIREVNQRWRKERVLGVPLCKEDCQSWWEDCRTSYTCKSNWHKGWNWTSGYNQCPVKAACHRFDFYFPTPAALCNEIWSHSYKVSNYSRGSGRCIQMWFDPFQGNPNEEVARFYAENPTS
Procedure: The use of the Centria® analytical system, Union Carbide Corporation, in this example, is meant to be illustrative and other methods, both automated and manual, obvious to those skilled in the clinical diagnostic art are also within the scope of this invention.
Briefly, the Centria® system is a tri-modular instrument in which reagents are pipetted on to a multiwell transfer disk and mixed centrifugally with standards or patients' samples. After a suitable incubation period, the components are separated by a centrifugal elution of the bound and free fractions and the bound fractions counted three at a time.
Folic acid and N^5 -methyltetrahydrofolic acid standards in the range 0-20 nanograms/milliliter were prepared in 0.05 M sodium borate, pH 9.3 containing 0.1% human serum albumin. The whole milk binder was prepared according to the method of Rothenberg et al., (3) and dissolved in sodium borate, pH 9.3 containing 0.1% human serum albumin.
(50 microliters, 20,000 cpm) plus 85 microliters of water with the limited number of binding sites contained in a 200 microliter solution of whole milk folate binder. The binding reactions may be shown as follows:
After a 10 minute incubation, the reaction mixture was centrifugally transferred onto DEAE Sephadex A-25 columns (0.75×4 in.) where separation of complexed folate from free folate was effected with 1.4 ml of elution buffer
(3) S. Rothenberg, M. DaCosta, and Z. Rosenberg, New Eng.
A gamma counter which counts three of the 36 positions at a time for one minute, so constructed that only the eluate bottom portion of the test tubes fits into the counter, was then used to count all samples. Sequential counting of the tubes thus required about 12 minutes. A small computer with printout capability then printed out the data after completion of the cycle.

[1] = storage stability of the radioiodinated product, judged by assay performance; format: physicochemical; settings: ten-week period, stored in 50% aqueous propylene glycol solution
Excerpt: Radioiodination of biological compounds frequently leads to marked chemical instability and subsequent degradation of the radiolabel. This problem is often accentuated in the radiolabel when the materials to be radioiodinated are known to be sensitive to oxygen, light or extremes in pH, as is the case with folic acid and some derivatives.
The reaction mixture was applied to a 1×20 cm Sephadex G25, fine, (Pharmacia Fine Chemicals, Uppsala, Sweden) column hydrated with distilled water and equilibrated with 0.1 M potassium phosphate, pH 7.5. The column was eluted with 0.1 M potassium phosphate buffer and 3 ml fractions collected. The product "peak" fractions 32-34 were collected, diluted 1:1 with propylene glycol and stored below 0° C.

carboxypeptidase A = assay: enzymatic hydrolysis of pteroyltyrosine followed by UV spectrophotometry; format: biochemical; settings: two hours, ambient temperature, Tris-HCl with zinc chloride pH 7.3
Procedure: Two millilters of a solution of pteroyltrosine ([…]) in 0.025 M Tris-HCl containing 2 mM zinc chloride, pH 7.3 were diluted to 10 ml with distilled water. A portion of this solution (2 ml) was placed in a 1 cm cuvette and in another was placed 2 ml of distilled water. To each of the cuvettes was added 50 μl of a solution of 100 μl carboxypeptidase A suspension (Aldrich chemical, lot (060637) diluted with 0.9 ml of 10% lithium chloride.
The time course of the reaction was followed spectrophotometrically (uv) over a period of two hours at ambient temperature. An increase and shift in max from 280 to 277 nm and a marked decrease in absorption at 220 nm was observed. Two isobestic points at 242 and 282 nm were visible.

Compound: CN1c2c(O)nc(N)nc2NCC1CNc1ccc(C(=O)N[C@@H](CCC(=O)O)C(=O)O)cc1 (stereo partly shown) [N^5 -methyl THF, N-5-methyltetrahydrofolic acid, reference compound]
dose response curves generated using pteroyltyrosine [125I] as label, folic acid versus N5-methyl THF (whole milk folate binder): more nearly coincident than at lower pH

performance as radiolabel in CPB radioassay for folic acid (whole milk folate binder; folic acid concentration range 0-20 ng/ml): effective radiolabel
stability of radioiodinated product (assay performance on storage) [1]: no deterioration in assay performance
Compound: Nc1nc(O)c2nc(CNc3ccc(C(=O)N[C@@H](Cc4ccc(O)c([125I])c4)C(=O)O)cc3)cnc2n1 [pteroyltyrosine [^125 I]]

behaviour in the folate competitive protein binding assay of radiolabel made from directly coupled p-aminobenzoyltyrosine product, compared with label from the hydrolyzed ester (whole milk folate binder): functioned identically
behaviour in the folate competitive protein binding assay of radiolabel made from directly coupled p-aminobenzoyltyrosine product, compared with label from the hydrolyzed ester (whole milk folate binder; listed as Pt-L-Tyr-OH): identically
Compound: Nc1nc2ncc(CNc3ccc(C(=O)N[C@@H](Cc4ccc(O)cc4)C(=O)O)cc3)nc2c(=O)[nH]1 [pteroyltyrosine, Pteroyl-L-Tyrosine]
UV spectral change on treatment with carboxypeptidase A (hydrolysis) (carboxypeptidase A): final spectrum was very similar to that of pteroic acid

Compound: Nc1nc2ncc(CNc3ccc(C(=O)N[C@@H](CCC(=O)O)C(=O)O)cc3)nc2c(=O)[nH]1 [folic acid]
dose response curves generated using pteroyltyrosine [125I] as label, folic acid versus N5-methyl THF (whole milk folate binder): more nearly coincident than at lower pH

— patent US4337339A, “Process for preparation of folic acid derivatives” (Baker Instruments Corp., priority 1979, dated 1982)
